Test system: C. albicans

With `II` [elemental iodine] the “elemental iodine concentrations required to affect microbial killing” value was < 0.01%.

Source: patent publication US6592890B1, “Conveyance of anti-infective activity to wound dressings” (OxiBio, Inc., priority 1999, dated 2003)
